The values below are quoted from earlier work in patent US20170020838A1, “TREATMENT FOR RESPIRATORY DISEASE” (MUCOKINETICA LIMITED, priority 2014, published 2017).

For this data set, the system named is airway ENaC. As to conditions: Bridges et al. 2001; cited from earlier work.

Turning to aprotinin, the “effect on airway ENaC activity” value was “Down regulation”.
